{"source": "patent US5593985A", "about": "“Cephalosporin compounds” (priority 1994, dated 1997)", "type_in_all_cases": "cell-based", "key": {"[1]": {"test_system": "Enterobacter cloacae P 99", "test": "MIC, standard strain 19", "settings": "P99, 18 h, read-out: Minimal Inhibitory Concentration(MIC)", "description": "(§1) In order to illustrate antibiotic effectiveness of the compounds of the present invention, the minimal inhibitory concentrations (MIC's) of the representative compounds were determined against standard strains and compared with ceftazidime and cefpirome, which were used as control compounds.\n(§2) The MIC values were taken by employing a two-fold dilution method: that is, two-fold serial dilutions of each of the test compounds were made from initial concentration of […]; each 1.5 ml of them was dispersed in 13.5 ml of Muller Hinton agar medium to adjust to […]; the standard test strain which had the concentration of 10^7 CFU/ml was inoculated by medium;and these were incubated at 37° C. for 18 hours.\n(§3) The test used twenty kinds of standard test strains which induced urinary tract infections, respiratory organ infections, skin soft tissue infections, plasma infections, gastrointestinal infections, central nervous system infections, most of which produce β-lactamase. The standard test strains used are as follows:\n19. Enterobacter cloacae P 99"}, "Salmonella typhimurium": {"test_system": "Salmonella typhimurium", "test": "MIC, standard strain 16", "settings": "Salmonella enterica; S. typhimurium; two-fold dilution, Muller Hinton agar, 10^7 CFU/ml, 37° C., 18 hours; read-out: Minimal Inhibitory Concentration(MIC)", "description": "as §1, §2, §3\n16. Salmonella typhimurium"}, "[2]": {"test_system": "Pseudomonas aeruginosa 9.027", "test": "MIC, standard strain 12", "settings": "Pseudomonas aeruginosa; P. aeruginosa 9.027; two-fold dilution, Muller Hinton agar, 10^7 CFU/ml, 37° C., 18 hours; read-out: Minimal Inhibitory Concentration(MIC)", "description": "as §1, §2, §3\n12. Pseudomonas aeruginosa 9.027"}, "[3]": {"test_system": "Staphylococcus aureus 285", "test": "MIC, standard strain 5", "settings": "Staphylococcus aureus; S. aureus 285; two-fold dilution, Muller Hinton agar, 10^7 CFU/ml, 37° C., 18 hours; read-out: Minimal Inhibitory Concentration(MIC)", "description": "as §1, §2, §3\n5. Staphylococcus aureus 285"}, "[4]": {"test_system": "Streptococcus pyogenes A 77", "test": "MIC, standard strain 2", "settings": "A77, S. pyogenes A 77, two-fold dilution, Muller Hinton agar, 10^7 CFU/ml, 37° C., 18 hours, read-out: Minimal Inhibitory Concentration(MIC)", "description": "as §1, §2, §3\n2. Streptococcus pyogenes A 77"}, "Escherichia coli DC 2": {"test_system": "Escherichia coli DC 2", "test": "MIC, standard strain 9", "settings": "DC2, E. coli DC 2, two-fold dilution, Muller Hinton agar, 10^7 CFU/ml, 37° C., 18 hours, read-out: Minimal Inhibitory Concentration(MIC)", "description": "as §1, §2\n(§4) The test used twenty kinds of standard test strains which induced urinary tract infections, respiratory organ infections, skin soft tissue infections, plasma infections, gastrointestinal infections, central nervous system infections, most of which produce β-lactamase."}, "Enterococcus I": {"test_system": "Enterococcus I", "test": "MIC, clinically separated strains", "settings": "18 h", "description": "as §2"}, "Methicillin Resistant": {"test_system": "Methicillin Resistant", "test": "MIC, clinically separated strains", "settings": "18 h, 19 clinical strains", "description": "as §2"}, "Serratia spp": {"test_system": "Serratia spp", "test": "MIC, clinically separated strains", "settings": "18 h", "description": "as §2"}, "Escherichia coli": {"test_system": "Escherichia coli", "test": "MIC, clinically separated strains", "settings": "18 h", "description": "as §2"}, "Morganella morganii": {"test_system": "Morganella morganii", "test": "MIC, clinically separated strains", "settings": "18 h", "description": "as §2"}, "Pseudomonas I": {"test_system": "Pseudomonas I", "test": "MIC, clinically separated strains", "settings": "18 h", "description": "as §2"}, "Klebsiella oxytoca": {"test_system": "Klebsiella oxytoca", "test": "MIC, clinically separated strains", "settings": "18 h", "description": "as §2"}, "Providencia rettgeri": {"test_system": "Providencia rettgeri", "test": "MIC, clinically separated strains", "settings": "18 h, read-out: range of MIC, 6 clinical strains", "description": "as §2"}, "Pseudomonas II": {"test_system": "Pseudomonas II", "test": "MIC, clinically separated strains", "settings": "18 h", "description": "as §2"}, "Pseudomonas aeruginosa": {"test_system": "Pseudomonas aeruginosa", "test": "MIC, clinically separated strains", "settings": "18 h", "description": "as §2"}, "MRSA(KAIST)": {"test_system": "MRSA(KAIST)", "test": "MIC, clinically separated strains", "settings": "Staphylococcus aureus, 18 h", "description": "as §2"}, "Enterobactercloacas": {"test_system": "Enterobactercloacas", "test": "MIC, clinically separated strains", "settings": "Enterobacter cloacae, 18 h, 20 clinical strains", "description": "as §2"}, "ATCC": {"test_system": "ATCC", "test": "MIC, clinically separated strains", "settings": "18 h; 20 strains", "description": "as §2"}, "D Streptococcus I": {"test_system": "D Streptococcus I", "test": "MIC, clinically separated strains", "settings": "18 h", "description": "as §2"}, "Proteus vulgaris": {"test_system": "Proteus vulgaris", "test": "MIC, clinically separated strains", "settings": "18 h", "description": "as §2"}, "Proteus mirabilis": {"test_system": "Proteus mirabilis", "test": "MIC, clinically separated strains", "settings": "18 h", "description": "as §2"}, "Enterococcus II": {"test_system": "Enterococcus II", "test": "MIC, clinically separated strains", "settings": "18 h", "description": "as §2"}, "Streptococcus II": {"test_system": "Streptococcus II", "test": "MIC, clinically separated strains", "settings": "18 h", "description": "as §2"}, "Streptococcus faecium 8b": {"test_system": "Streptococcus faecium 8b", "test": "MIC, standard strain 3", "settings": "Enterococcus faecium; S. faecium 8b; two-fold dilution, Muller Hinton agar, 10^7 CFU/ml, 37° C., 18 hours; read-out: Minimal Inhibitory Concentration(MIC)", "description": "as §1, §2, §3\n3. Streptococcus faecium 8b"}, "Escherichia coli TEM": {"test_system": "Escherichia coli TEM", "test": "MIC, standard strain 10", "settings": "18 h, read-out: Minimal Inhibitory Concentration(MIC)", "description": "as §1, §2, §4"}, "[5]": {"settings": "read-out: range of MIC, 20 clinical strains"}, "[6]": {"settings": "read-out: range of MIC, 5 clinical strains"}}}
{"smiles": "CO/N=C(\\C(=O)N[C@@H]1C(=O)N2C(C(=O)[O-])=C(C[n+]3cccc4c3CCC4)CS[C@H]12)c1csc(N)n1", "note": "[cefpirome, reference compound]", "values": [{"measurement": "MIC", "setting": "[1]", "result": 3120, "unit": "µg/mL"}, {"measurement": "MIC", "setting": "Salmonella typhimurium", "result": 25, "unit": "µg/mL"}, {"measurement": "MIC", "setting": "[2]", "result": 3120, "unit": "µg/mL"}, {"measurement": "MIC", "setting": "[3]", "result": 781, "unit": "µg/mL"}, {"measurement": "MIC", "setting": "[4]", "result": 98, "unit": "µg/mL"}, {"measurement": "MIC", "setting": "Escherichia coli DC 2", "result": 49, "unit": "µg/mL"}, {"measurement": "MIC50", "setting": "Enterococcus I; 20 clinical strains", "result": 0.025, "unit": "µg/mL"}, {"measurement": "MIC90", "setting": "Enterococcus I; 20 clinical strains", "result": 0.098, "unit": "µg/mL"}, {"measurement": "MIC", "setting": "Enterococcus I; read-out: range of MIC", "result": "0.013 to 0.195", "unit": "µg/mL"}, {"measurement": "MIC", "setting": "Methicillin Resistant; read-out: range of MIC", "result": "0.781 to 100", "unit": "µg/mL"}, {"measurement": "MIC50", "setting": "Methicillin Resistant", "result": 12.5, "unit": "µg/mL"}, {"measurement": "MIC90", "setting": "Methicillin Resistant", "result": 100, "unit": "µg/mL"}, {"measurement": "MIC50", "setting": "Serratia spp; 20 clinical strains", "result": 0.049, "unit": "µg/mL"}, {"measurement": "MIC90", "setting": "Serratia spp; 20 clinical strains", "result": 0.098, "unit": "µg/mL"}, {"measurement": "MIC", "setting": "Serratia spp; [5]", "result": "0.025 to 0.049", "unit": "µg/mL"}, {"measurement": "MIC50", "setting": "Escherichia coli; 20 clinical strains", "result": 0.025, "unit": "µg/mL"}, {"measurement": "MIC90", "setting": "Escherichia coli; 20 clinical strains", "result": 0.049, "unit": "µg/mL"}, {"measurement": "MIC", "setting": "Escherichia coli; [5]", "result": "0.025 to 0.391", "unit": "µg/mL"}, {"measurement": "MIC50", "setting": "Morganella morganii; 5 clinical strains", "result": 0.013, "unit": "µg/mL"}, {"measurement": "MIC90", "setting": "Morganella morganii; 5 clinical strains", "result": 0.025, "unit": "µg/mL"}, {"measurement": "MIC", "setting": "Morganella morganii; [6]", "result": "0.013 to 0.025", "unit": "µg/mL"}, {"measurement": "MIC50", "setting": "Pseudomonas I", "result": 1.56, "unit": "µg/mL"}, {"measurement": "MIC90", "setting": "Pseudomonas I", "result": 6.25, "unit": "µg/mL"}, {"measurement": "MIC", "setting": "Pseudomonas I; read-out: range of MIC", "result": "0.781 to 12.5", "unit": "µg/mL"}, {"measurement": "MIC50", "setting": "Klebsiella oxytoca; 20 clinical strains", "result": 0.025, "unit": "µg/mL"}, {"measurement": "MIC90", "setting": "Klebsiella oxytoca; 20 clinical strains", "result": 0.781, "unit": "µg/mL"}, {"measurement": "MIC", "setting": "Klebsiella oxytoca; [5]", "result": "0.007 to 0.391", "unit": "µg/mL"}, {"measurement": "MIC", "setting": "Providencia rettgeri", "result": "0.004 to 0.098", "unit": "µg/mL"}, {"measurement": "MIC50", "setting": "Pseudomonas II", "result": 1.56, "unit": "µg/mL"}, {"measurement": "MIC90", "setting": "Pseudomonas II", "result": 6.25, "unit": "µg/mL"}, {"measurement": "MIC", "setting": "Pseudomonas II; read-out: range of MIC", "result": "0.781 to 12.5", "unit": "µg/mL"}, {"measurement": "MIC50", "setting": "Pseudomonas aeruginosa; 20 clinical strains", "result": 3.12, "unit": "µg/mL"}, {"measurement": "MIC90", "setting": "Pseudomonas aeruginosa; 20 clinical strains", "result": 12.5, "unit": "µg/mL"}, {"measurement": "MIC", "setting": "Pseudomonas aeruginosa; [5]", "result": "0.781 to 12.5", "unit": "µg/mL"}, {"measurement": "MIC50", "setting": "MRSA(KAIST); 15 clinical strains", "result": 12.5, "unit": "µg/mL"}, {"measurement": "MIC90", "setting": "MRSA(KAIST); 15 clinical strains", "result": 100, "unit": "µg/mL"}, {"measurement": "MIC", "setting": "MRSA(KAIST); read-out: range of MIC, 15 clinical strains", "result": "0.781 to 100", "unit": "µg/mL"}, {"measurement": "MIC", "setting": "Enterobactercloacas; read-out: range of MIC", "result": "0.013 to 1.56", "unit": "µg/mL"}, {"measurement": "MIC50", "setting": "Enterobactercloacas", "result": 0.025, "unit": "µg/mL"}, {"measurement": "MIC90", "setting": "Enterobactercloacas", "result": 0.098, "unit": "µg/mL"}, {"measurement": "MIC50", "setting": "ATCC", "result": 0.098, "unit": "µg/mL"}, {"measurement": "MIC90", "setting": "ATCC", "result": 25, "unit": "µg/mL"}, {"measurement": "MIC50", "setting": "D Streptococcus I; 20 clinical strains", "result": 25, "unit": "µg/mL"}, {"measurement": "MIC90", "setting": "D Streptococcus I; 20 clinical strains", "result": 50, "unit": "µg/mL"}, {"measurement": "MIC", "setting": "D Streptococcus I; [5]", "result": "12.5 to 100", "unit": "µg/mL"}, {"measurement": "MIC50", "setting": "Proteus vulgaris; 5 clinical strains", "result": 0.049, "unit": "µg/mL"}, {"measurement": "MIC90", "setting": "Proteus vulgaris; 5 clinical strains", "result": 0.098, "unit": "µg/mL"}, {"measurement": "MIC", "setting": "Proteus vulgaris; [6]", "result": "0.025 to 0.098", "unit": "µg/mL"}, {"measurement": "MIC50", "setting": "Proteus mirabilis; 4 clinical strains", "result": 0.013, "unit": "µg/mL"}, {"measurement": "MIC90", "setting": "Proteus mirabilis; 4 clinical strains", "result": 0.049, "unit": "µg/mL"}, {"measurement": "MIC", "setting": "Proteus mirabilis; read-out: range of MIC, 4 clinical strains", "result": "0.007 to 0.049", "unit": "µg/mL"}, {"measurement": "MIC50", "setting": "Enterococcus II; 20 clinical strains", "result": 0.049, "unit": "µg/mL"}, {"measurement": "MIC90", "setting": "Enterococcus II; 20 clinical strains", "result": 1.56, "unit": "µg/mL"}, {"measurement": "MIC", "setting": "Enterococcus II; [5]", "result": "0.007 to 3.12", "unit": "µg/mL"}, {"measurement": "MIC50", "setting": "Streptococcus II; 17 clinical strains", "result": 0.004, "unit": "µg/mL"}, {"measurement": "MIC90", "setting": "Streptococcus II; 17 clinical strains", "result": 0.007, "unit": "µg/mL"}, {"measurement": "MIC", "setting": "Streptococcus II; read-out: range of MIC, 17 clinical strains", "result": "0.002 to 0.007", "unit": "µg/mL"}, {"measurement": "MIC", "setting": "Streptococcus faecium 8b", "result": 25000, "unit": "µg/mL"}, {"measurement": "MIC", "setting": "Escherichia coli TEM", "result": 49, "unit": "µg/mL"}]}
